From ChEMBL document CHEMBL1124230, “Synthesis and anti-HIV activity of different sugar-modified pyrimidine and purine nucleosides” (1988) come the findings set out here.

Assay [1] deals with Human immunodeficiency virus 1. The experiment in a line: Dose required to inhibit cytopathic effect of human immunodeficiency virus replication in MT-4 cells. The format is functional. Particulars: Human immunodeficiency virus 1, MT4; read-out: ED50 (the source's name). On the technique in general: Damage to the host cells serves as the signal in cytopathic effect assays.
Assay [2] has as its system MT4. The experiment in a line: Cytotoxic dose required to reduce the viability of normal uninfected MT-4 cells. Particulars: Homo sapiens, read-out: CD50 (the source's name). The format is functional.
Assay [3] deals with MT4. Nature of the assay: Ratio of CD50 to ED50 rvaluated for inhibition of HIV replication in MT-4 cells. The format is functional.
The nature of assay [4]: Ratio of CD50 to ED50 evaluated for inhibition of HIV replication in MT-4 cells. The format is functional, MT4.

In the case of `Nc1ncnc2c1ncn2[C@@H]1O[C@H](CO)C[C@@H]1O`, the EC50 in assay [1] is more than 500 µM. The CC50 in the assay on MT4 [2] is more than 500 µM.

For `Cc1cn([C@H]2C[C@H](N=[N+]=[N-])[C@@H](CO)O2)c(=O)nc1N`, in assay [1], the EC50 was 1.8 µM. Also, the CC50 in the assay on MT4 [2] was more than 1000 µM. Also, the Selectivity index with MT4 [3] was found to be 555.

For `[N-]=[N+]=N[C@H]1C[C@H](n2ccc(N)nc2=O)O[C@@H]1CO`, in assay [1], the EC50 was found to be 3.1 µM. Besides, the CC50 with MT4 [2] was determined as 34.1 µM. In the assay on MT4 [3], the Selectivity index was found to be 11.

On to `Nc1ncnc2c1ncn2[C@@H]1O[C@H](CO)[C@H]2O[C@H]21`, for which the EC50 in assay [1] was more than 500 µM. The CC50 with MT4 [2] was more than 500 µM.

Take `Nc1ncnc2c1ncn2[C@@H]1O[C@H](CO)[C@@H]2O[C@@H]21`: the EC50 in assay [1] is more than 100 µM. Moreover, the CC50 in the assay with MT4 [2] was more than 100 µM.

Consider `CNc1nc(=O)n(C2CC(N=[N+]=[N-])C(CO)O2)cc1C` (stereo not given), for which the EC50 in assay [1] turned out to be 17.3 µM. Further, the CC50 in the assay with MT4 [2] is more than 1000 µM. In addition, the Selectivity index in the assay with MT4 [3] is on record as more than 58.

In the case of `O=c1ccn([C@H]2C[C@H](F)[C@@H](CO)O2)c(=O)[nH]1`, in assay [1], the EC50 came to 0.04 µM. The CC50 with MT4 [2] amounted to 16 µM. In addition, the Selectivity index in the assay with MT4 [3] amounted to 400.

With `Nc1ncnc2c1ncn2C1OC(CO)CC1Br` (stereo not given), the EC50 in assay [1] is more than 500 µM. Further, the CC50 with MT4 [2] is more than 500 µM.

As to `C#CC1C(CO)OC(n2cc(C)c(=O)[nH]c2=O)C1O` (stereo not given), the EC50 in assay [1] was more than 500 µM. Moreover, in the assay with MT4 [2], the CC50 is more than 500 µM.

Turning to `Nc1ncnc2c1ncn2C1OC(CO)CC1Cl` (stereo not given), the EC50 in assay [1] is more than 500 µM. For the same compound, the CC50 in the assay on MT4 [2] is more than 500 µM.

For the compound `CC(=O)SC1CC(n2cc(C)c(=O)[nH]c2=O)OC1CO` (stereo not given), the EC50 in assay [1] stood at 27 µM. In the assay with MT4 [2], the CC50 is 29 µM. Besides, in the assay with MT4 [3], the Selectivity index was found to be 1.1.

Take `CNc1ccn(C2CC(N=[N+]=[N-])C(CO)O2)c(=O)n1` (stereo not given): the EC50 in assay [1] was 605 µM. Moreover, in the assay with MT4 [2], the CC50 is more than 1000 µM. Besides, in the assay with MT4 [3], the Selectivity index was more than 1.6.

For `Nc1nc(N)c2ncn([C@H]3C[C@H](O)[C@@H](CO)O3)c2n1`, the EC50 in assay [1] is more than 125 µM. Moreover, the CC50 in the assay on MT4 [2] was more than 625 µM.

As to `Cc1cn([C@H]2C[C@H](OC(=S)Oc3ccccc3)[C@@H](CO)O2)c(=O)[nH]c1=O`, the EC50 in assay [1] was more than 250 µM. In the assay on MT4 [2], the CC50 was more than 250 µM.

On to `Nc1nc(O)c2ncn(C3C=CC(CO)O3)c2n1` (stereo not given), for which the EC50 in assay [1] is more than 5 µM. Moreover, in the assay on MT4 [2], the CC50 came out at 11 µM. Moreover, the Selectivity index in assay [4] is more than 2.2.

In the case of `Cc1cn(C2OC(CO)C(C#N)C2O)c(=O)[nH]c1=O` (stereo not given), the EC50 in assay [1] is more than 500 µM.

As to `Cc1cn([C@H]2C[C@H](SS[C@H]3C[C@H](n4cc(C)c(O)nc4=O)O[C@@H]3CO)[C@@H](CO)O2)c(=O)nc1O`, the EC50 in assay [1] amounted to 16 µM. Besides, the CC50 with MT4 [2] stood at 34 µM. Moreover, the Selectivity index in the assay with MT4 [3] stood at 2.1.

For `Cc1ccc(SC2CC(n3cc(C)c(=O)[nH]c3=O)OC2CO)cc1` (stereo not given), the EC50 in assay [1] is more than 100 µM. Moreover, the CC50 in the assay with MT4 [2] stood at 116 µM. Also, the Selectivity index in the assay with MT4 [3] is on record as less than 1.2.

Take `Nc1nc(N)c2ncn(C3CC(F)C(CO)O3)c2n1` (stereo not given): in assay [1], the EC50 is 4.5 µM. For the same compound, the CC50 in the assay on MT4 [2] worked out at 360 µM. Further, the Selectivity index with MT4 [3] was 80.

For the compound `Nc1nc(O)c2ncn(C3CC(F)C(CO)O3)c2n1` (stereo not given), the EC50 in assay [1] was determined as 2.4 µM. The CC50 in the assay on MT4 [2] came out at 237 µM. Also, in assay [4], the Selectivity index turned out to be 96.

With `CC1=CN(C2CC(N=[N+]=[N-])C(CO)O2)CN=C1NO` (stereo not given), in assay [1], the EC50 was 1.5 µM. For the same compound, in the assay with MT4 [2], the CC50 was 92 µM. The Selectivity index with MT4 [3] worked out at 61.

On to `Cc1cn([C@H]2C[C@H](F)[C@@H](CO)O2)c(=O)[nH]c1=O` [ALOVUDINE], for which the EC50 in assay [1] amounted to 0.001 µM. For the same compound, in the assay with MT4 [2], the CC50 was 0.197 µM. The Selectivity index in the assay with MT4 [3] turned out to be 197.

For `Nc1ncnc2c1ncn2[C@@H]1O[C@H](CO)C[C@H]1O` [CORDYCEPIN], the EC50 in assay [1] was more than 50 µM. Also, the CC50 with MT4 [2] is 45 µM. Moreover, the Selectivity index in the assay with MT4 [3] was less than 0.5.

With `Nc1ncnc2c1ncn2[C@H]1C[C@H](O)[C@@H](CO)O1` [DEOXYADENOSINE], the EC50 in assay [1] is more than 100 µM. Further, the CC50 in the assay on MT4 [2] is more than 100 µM.

Take `Nc1nc(O)c2ncn([C@H]3C[C@H](O)[C@@H](CO)O3)c2n1` [DEOXYGUANOSINE]: in assay [1], the EC50 was 158 µM. Also, in the assay on MT4 [2], the CC50 was more than 500 µM. In addition, in assay [4], the Selectivity index came out at 3.1.

With `[N-]=[N+]=N[C@H]1C[C@H](n2ccc(=O)[nH]c2=O)O[C@@H]1CO` [NAVURIDINE], the EC50 in assay [1] amounted to 0.36 µM. Moreover, the CC50 in the assay with MT4 [2] was determined as 244 µM. Moreover, the Selectivity index in the assay with MT4 [3] was found to be 677.

On to `Cc1cn([C@H]2C[C@H](N=[N+]=[N-])[C@@H](CO)O2)c(=O)[nH]c1=O` [ZIDOVUDINE], for which the EC50 in assay [1] was 0.004 µM. Besides, the CC50 with MT4 [2] came out at 20 µM. The Selectivity index in the assay with MT4 [3] is 5000.
